Values of other authors in US20230210937A1, “COMPOSITIONS AND METHODS FOR THE TREATMENT AND/OR PROPHYLAXIS OF DIABETES AND OTHER CONDITIONS” (LIFELOCK BIOSCIENCE SOLUTIONS INC., priority 2019, published 2023).

Tests used:
mTORC1 = mTORC1 (Homo sapiens, UniProt P42345)
[1] = test system: colon cancer cell line Caco-2
PAK1 = PAK1 (Rattus norvegicus, UniProt P35465); details: skeletal muscle cells, co-immunoprecipitation
[2] = Caco-2, 100 ng/mL PMA, 2.5 mM IP6

PAK1, sequence (P35465 2-544 limits assumed): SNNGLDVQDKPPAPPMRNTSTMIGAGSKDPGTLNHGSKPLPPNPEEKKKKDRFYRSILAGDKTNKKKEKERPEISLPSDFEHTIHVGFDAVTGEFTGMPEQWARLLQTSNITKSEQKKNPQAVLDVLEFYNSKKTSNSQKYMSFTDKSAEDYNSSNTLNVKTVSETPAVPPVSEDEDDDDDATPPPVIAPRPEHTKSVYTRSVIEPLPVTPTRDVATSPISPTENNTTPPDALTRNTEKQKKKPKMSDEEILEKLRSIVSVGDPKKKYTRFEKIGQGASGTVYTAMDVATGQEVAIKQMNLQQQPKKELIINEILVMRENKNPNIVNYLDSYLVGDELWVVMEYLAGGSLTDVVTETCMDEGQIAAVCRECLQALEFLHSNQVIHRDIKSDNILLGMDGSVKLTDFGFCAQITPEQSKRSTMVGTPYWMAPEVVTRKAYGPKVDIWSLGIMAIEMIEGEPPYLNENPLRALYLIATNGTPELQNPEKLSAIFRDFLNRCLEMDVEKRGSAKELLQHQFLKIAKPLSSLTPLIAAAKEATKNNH

COc1cc(/C=C/C(=O)CC(=O)/C=C/c2ccc(O)c(OC)c2)ccc1O [curcumin, (1E,6E)-1,7-Bis(4-hydroxy-3-methoxyphenyl)hepta-1,6-diene-3,5-dione]
TSC1/2 interaction (mTORC1): did not alter
raptor-mTOR association (mTORC1; leading to inhibition of mTORC1 activity): able to dissociate raptor from mTOR
phosphorylation of p70S6kinase 1 (S6K1) and 4E-BP1 (mTORC1; numerous cancer cell lines): inhibits

O=P(O)(O)OC1C(OP(=O)(O)O)C(OP(=O)(O)O)C(OP(=O)(O)O)C(OP(=O)(O)O)C1OP(=O)(O)O [IP6, (1R,2S,3R,4R,5S,6s)-cyclohexane-1,2,3,4,5,6-hexayl hexakis[dihydrogen (phosphate)]]
MMP-1 expression, PMA and IP6 in comparison to PMA-stimulated cells [1, 2]: significant decrease
MMP-9 transcription induced by PMA [1, 2]: down-regulated
level of both MMP-2 and MMP-3 mRNAs in PMA-stimulated cells [1, 2]: decreased
MMP-2, MMP-3, MMP-10, MMP-13, and TIMP-1 expression ([1]; Caco-2, 2.5 mM of IP6, 6 and 12 h): significant decrease

Oc1ccc2ccccc2c1SSc1c(O)ccc2ccccc12 [IPA3]
insulin-stimulated associations of p41ARC, N-WASP, cortactin and actin (PAK1): ablated
